How the values were obtained:
Experiment in all cases: normalised response (% of control), CellTiter-Glo; higher = more viable cells (100 = DMSO, 0 = benzethonium chloride kill control)
Conditions in all cases: incubation time: 72 h
[1] = test system: SK-BR-3
Procedure, shortened: (§1)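 Compound was dispensed into 384-well plates at 5 concentrations in 10-fold steps spanning a 10,000-fold range specific to that compound. Breast cancer cell lines were added as 20 µl suspension and left for 72 h before CellTox Green fluorescence (485/520 nm) and then CellTiter-Glo luminescence, read after 10 min at room temperature. Each reported value is the normalised signal at one concentration, with 0.1 % DMSO set at 100 and a positive kill control at 0 on each plate.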

[2] = test system: CAL-120
Procedure, shortened: as §1

[3] = test system: BT-549
Procedure, shortened: as §1

[4] = test system: CAL-85-1
Procedure, shortened: as §1

[5] = test system: DU-4475
Procedure, shortened: as §1

[6] = test system: HCC1599
Procedure, shortened: as §1

[7] = test system: MDA-MB-453
Procedure, shortened: as §1

[8] = test system: HCC1143
Procedure, shortened: as §1

[9] = test system: MDA-MB-231
Procedure, shortened: as §1

[10] = test system: MCF-10A
Procedure, shortened: as §1

[11] = test system: CAL-148
Procedure, shortened: as §1

[12] = test system: MDA-MB-468
Procedure, shortened: as §1

[13] = test system: CAL-51
Procedure, shortened: as §1

[14] = test system: HDQ-P1
Procedure, shortened: as §1

[15] = test system: Hs578T
Procedure, shortened: as §1

[16] = test system: MFM-223
Procedure, shortened: as §1

[17] = test system: BT-474
Procedure, shortened: as §1

[18] = test system: HCC1937
Procedure, shortened: as §1

[19] = test system: MDA-MB-436
Procedure, shortened: as §1

Row | Compound | normalised response [1] [%] | normalised response [2] [%] | normalised response [3] [%] | normalised response [4] [%] | normalised response [5] [%] | normalised response [6] [%] | normalised response [7] [%] | normalised response [8] [%] | normalised response [9] [%] | normalised response [10] [%] | normalised response [11] [%] | normalised response [12] [%] | normalised response [13] [%] | normalised response [14] [%] | normalised response [15] [%] | normalised response [16] [%] | normalised response [17] [%] | normalised response [18] [%] | normalised response [19] [%]
1 | Nc1ncnc2c1c(COc1cccc(Cl)c1)nn2C1CCOCC1 (1 nM) | 109 | 95.4 | 104 | 95.7 | 101 | 107 | 102 | 106 | 103 | 114 | 105 | 94.7 | 105 | 100 | 104 | 102 | 102 | 100 | 102
2 | Nc1ncnc2c1c(COc1cccc(Cl)c1)nn2C1CCOCC1 (10 nM) | – | 96.6 | 98.2 | 101 | 105 | 101 | 104 | 105 | 107 | 114 | 115 | 106 | 94.8 | 99.1 | 108 | 105 | 101 | 97.7 | 105
3 | COc1ccc(-c2ccc3c(N4CCOC[C@@H]4C)nc(N4CCOC[C@@H]4C)nc3n2)cc1CO [AZD8055] (1 nM) | 87.1 | 90.3 | 98.2 | 93.5 | 95.5 | 108 | 104 | 86.8 | 95.2 | 85.7 | 89.3 | 90.5 | 116 | 95.2 | 93.7 | 86.8 | 90.8 | 91 | 89.3
4 | COc1ccc(-c2ccc3c(N4CCOC[C@@H]4C)nc(N4CCOC[C@@H]4C)nc3n2)cc1CO [AZD8055] (10 nM) | 53.5 | 81.1 | 77.9 | 85.4 | 92 | 98.3 | 79.3 | 86.8 | 88 | 87 | 82.5 | 80.1 | 92.8 | 74.6 | 92.2 | 77.8 | 84.8 | 84.2 | 76.5
5 | C[C@]12CC[C@H](O)CC1=CC[C@@H]1[C@@H]2CC[C@]2(C)C(c3cccnc3)=CC[C@@H]12 [Abiraterone] (0.5 nM) | 106 | 97.6 | 105 | 106 | 94.5 | 119 | 114 | 94.7 | 105 | 102 | 108 | 109 | 95.7 | 106 | 102 | 98 | 104 | 96.2 | 94.7
6 | C[C@]12CC[C@H](O)CC1=CC[C@@H]1[C@@H]2CC[C@]2(C)C(c3cccnc3)=CC[C@@H]12 [Abiraterone] (5 nM) | 111 | 95.7 | 95.6 | 110 | 109 | 116 | 116 | 101 | 106 | 102 | 91.8 | 99 | 136 | 99.5 | 104 | 97.5 | 107 | 94.6 | 103
7 | CN(C)CCN1C(=O)c2cccc3cc(N)cc(c23)C1=O [Amonafide] (10 nM) | – | 97 | 100 | 98 | 99.7 | 95 | 98.6 | 101 | 102 | 97.6 | 86.5 | 93 | 123 | 100 | 99.8 | 99.8 | 98.7 | 96.9 | 103
8 | O=C(O)CCCc1ccc(N(CCCl)CCCl)cc1 [Chlorambucil] (10 nM) | – | 97.2 | 102 | 108 | 101 | 97.8 | 101 | 102 | 106 | 93.6 | 101 | 101 | 95.2 | 99.7 | 103 | 108 | 99.1 | 98.8 | 104
9 | Cn1c(=O)n(-c2ccc(C(C)(C)C#N)cc2)c2c3cc(-c4cnc5ccccc5c4)ccc3ncc21 [Dactolisib] (1 nM) | – | 90.2 | 101 | 101 | 107 | 95.8 | 110 | 98.5 | 107 | 113 | 116 | 103 | 83.4 | 95 | 95.7 | 108 | 106 | 98.7 | 95.8
10 | C/C(=C\c1csc(C)n1)[C@@H]1C[C@@H]2O[C@]2(C)CCC[C@H](C)[C@H](O)[C@@H](C)C(=O)C(C)(C)[C@@H](O)CC(=O)O1 [Patupilone] (1 nM) | – | 103 | 97.3 | 105 | 106 | 117 | 107 | 111 | 107 | 106 | 106 | 109 | 99.2 | 97.3 | 104 | 101 | 104 | 103 | 108
11 | CC[C@]1(O)C[C@H]2CN(CCc3c([nH]c4ccccc34)[C@@](C(=O)OC)(c3cc4c(cc3OC)N(C=O)[C@H]3[C@@](O)(C(=O)OC)[C@H](OC(C)=O)[C@]5(CC)C=CCN6CC[C@]43[C@@H]65)C2)C1 [Vincristine] (1 nM) | – | 96.4 | 87.6 | 102 | 106 | 113 | 104 | 104 | 99.4 | 104 | 110 | 95.3 | 91.4 | 97.6 | 105 | 104 | 100 | 96.3 | 106
